Source: patent US5942494A, “Stimulation of gene expression and synthesis of heat shock protein 72/73 (HSP 70)” (The Trustees of Columbia University in the City of New York, priority 1996, dated 1999)
Square brackets hold non-standard residues; d marks the D form. Peptide text beside a SMILES is read from it. Nle = CCCC[C@H](N)C(=O)O

Key:
HepG2 cells = assay: Total incorporation of radiolabel (TCA cpm) as indicator of cell toxicity, HepG2; type: cell-based, human; settings: ALLN 10 μg/ml, HepG2
Procedure: HepG2 cells were preincubated for 4 hours in serum-free MEM and then radiolabeled with ^3 H-Leucine (150 μCi/ml) in a serum-free, leucine-free medium. Preincubation and labeling media each contained either 1.5% bovine serum albumin (BSA) alone, or BSA plus ALLN (40 μg/ml except as otherwise indicated), or BSA plus other protease inhibitors at concentrations indicated in the figure legends. At the indicated times, cells were removed from the 37° C. incubator and placed on ice, washed with cold phosphate-buffer saline (PBS) twice and lysed with lysis buffer containing 1% Triton X-100 (TX100), 1% deoxycholic acid (DOC) and 0.1% SDS in PBS containing proteinase inhibitors: 2 mM phenylmethylsulfonyl fluoride (PMSF); 2 μg/ml ALLN; 2 μg/ml leupeptin; and 2 μg/ml aprotinin. After a 30 min. incubation with lysis buffer at 4° C., the lysates were centrifuged at 14,000 g in a microcentrifuge for 5 min., and the supernatants were adjusted to 1% SDS concentration and boiled for 5 min. to denature the proteins. 1% TX100 was then added to dilute the lysates to a final concentration of 0.1% SDS. Cell lysates containing equal amounts of trichloroacetic acid (TCA)-insoluble radioactivity were used for immunoprecipitations by incubating with individual monoclonal antibody (1 μg/ml) for 2.5 hours at 4° C. Protein-A Sepharose 4B was added afterwards and the lysates incubated for another 1.5 hours at 4° C. to collect the immunocomplexes. After washing four times with 1×NET buffer (containing 0.5% TX100, 0.1% SDS), the immunocomplexes were mixed with sample buffer and boiled for 5 min. Following centrifugation, the supernatants were aliquoted for scintillation counting and for 3-15% gradient polyacrymide gel electrophoresis (SDS-PAGE) . The gels were later subjected to fluorography. All values are presented as the mean ± S.D. from three individual experiments except as otherwise indicated.

HSF1 = assay: EGS cross-linking and Western blot of HSF1 oligomeric forms in HepG2 cells; type: cell-based, human; settings: ALLN 40 μg/ml, 2 hours at 37° C., EGS cross-linking
Procedure: FIGS. 6A-6B: ALLN affects the trimerization of HSF. HepG2 cells were treated with serum-free MEM containing 1.5% BSA for 2 hours at 37° C. without any additions (lane1), at 37 ° C. but containing 40μg/ml of ALLN in the medium (lane2), at 37° C. in a medium containing both ALLN and 50 μg/ml of cycloheximide (lane3) , at 42° C. alone (lane4), or at 42° C. plus cycloheximide in the medium (lane5). Cell lysates were prepared as described under Experimental Details. The lysates were either directly run on the SDS-PAGE (A) to show the steady-state protein levels of HSF1 or subjected to cross-linking with ethylene glycol bis sucrinimidylsuccinate (EGS) before running the gel (B) to show the oligomeric forms of HSF1. The proteins were then transfered to a nitrocellulose membrane and immunoblotted with anti-human HSF1 antibody. Arrows on the right side indicates the monomeric, dimeric or trimeric forms of HSF1, respectively. This experiment was repeated three times with identical results.
For measurement of the steady-state HSF1 protein levels, whole cell extracts were prepared by lysing the cells directly with 2×SDS-sample buffer (Maniatis, et al., 1982). For chemical cross-linking experiments, whole-cell extracts were prepared as described (Mosser, et al., 1988). Briefly, the cold PBS-washed cell pellets were quickly and repeatedly frozen in liquid nitrogen. […]

For `CCCC[C@@H](C=O)NC(=O)[C@H](CC(C)C)NC(=O)[C@H](CC(C)C)NC(C)=O` [ALLN, N-acetyl-leucyl-leucyl-norleucinal] (Ac-Leu-Leu-[Nle]-aldehyde), the “Cell total incorporation of radiolabel (TCA cpm, an indicator of cell toxicity)” value (HepG2 cells) was “did not change significantly” and the “Oligomeric form of HSF1 (270-kDa cross-linked product)” value (HSF1) was “trimer”.
